Data published in US4748240A, “Psychotropic bicyclic imides” (American Home Products Corporation, priority 1987, dated 1988).
Where two headings read alike, the source gives them in different places.

Tests used:
[1] = target: T1, 5-HT1A serotonin receptor (Rattus norvegicus, UniProt P19327); assay: Inhibition of [^3 H] 8-OH DPAT binding
T1 construct: from tissue
T1 sequence (P19327 1-422): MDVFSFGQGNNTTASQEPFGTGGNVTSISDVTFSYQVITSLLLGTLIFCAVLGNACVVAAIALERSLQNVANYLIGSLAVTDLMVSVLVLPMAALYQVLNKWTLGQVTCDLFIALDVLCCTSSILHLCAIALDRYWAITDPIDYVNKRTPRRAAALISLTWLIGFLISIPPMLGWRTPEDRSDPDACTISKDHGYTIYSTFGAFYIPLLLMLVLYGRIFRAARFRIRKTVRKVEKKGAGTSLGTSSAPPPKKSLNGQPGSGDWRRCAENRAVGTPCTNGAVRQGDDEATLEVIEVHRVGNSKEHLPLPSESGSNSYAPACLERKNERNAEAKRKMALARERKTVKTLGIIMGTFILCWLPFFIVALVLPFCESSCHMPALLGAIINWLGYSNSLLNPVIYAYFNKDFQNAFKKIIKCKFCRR
Description: 8-OH DPAT (dipropylaminotetralin) from the 5-HT1A serotonin receptor by the procedure of Hall et al., J. Neurochem.

[2] = tested on: conditioned avoidance responding; assay: Conditioned avoidance, shelf-jump response; type: in vivo, rat (male CD, Charles River); details: Rattus norvegicus, ip; single dose 40 mg/kg
Description: (§1) The antipsychotic properties of the compounds of this invention were established by standard pharmacologically accepted procedures involving conditioned avoidance studies in which trained male CD rats (Charles River), 400-450 g. body weight are exposed to a fifteen second warning tone (conditioned stimulus) continued for an additional fifteen seconds accompanied by electric shock. The rat can avoid the electric shock by jumping to an exposed shelf (shelf-jump response). A response during the initial warning tone is considered an avoidance response, while a response during shock delivery is considered as escape response. The shelf-jump response test procedure follows that of Herman et al., Comm. in Psychopharm., 3, pp. 165-171 (1979). The compounds of this invention were tested at a single dose (40 mg./kg. i.p.) in this procedure and were rated relative to their inhibition of conditioned avoidance responding. A similar test procedure (Discrete Trial) in which a lever press was substituted for a shelf-jump was used to establish the oral (p.o.) activity of the test compounds. Orally active compounds were tested over a full dose range and the Avoidance Block activities reported as "AB50 's" (mg./kg.).

D-2 dopamine receptor = target: T2, D-2 dopamine receptor (Rattus norvegicus, UniProt P61169); assay: [^3 H] Spiroperidol binding inhibition (D-2 dopamine receptor, homogenized limbic brain tissue); details: 1 μM
T2 construct: from tissue; host or cells: homogenized limbic brain tissue
T2 sequence (P61169 whole entry): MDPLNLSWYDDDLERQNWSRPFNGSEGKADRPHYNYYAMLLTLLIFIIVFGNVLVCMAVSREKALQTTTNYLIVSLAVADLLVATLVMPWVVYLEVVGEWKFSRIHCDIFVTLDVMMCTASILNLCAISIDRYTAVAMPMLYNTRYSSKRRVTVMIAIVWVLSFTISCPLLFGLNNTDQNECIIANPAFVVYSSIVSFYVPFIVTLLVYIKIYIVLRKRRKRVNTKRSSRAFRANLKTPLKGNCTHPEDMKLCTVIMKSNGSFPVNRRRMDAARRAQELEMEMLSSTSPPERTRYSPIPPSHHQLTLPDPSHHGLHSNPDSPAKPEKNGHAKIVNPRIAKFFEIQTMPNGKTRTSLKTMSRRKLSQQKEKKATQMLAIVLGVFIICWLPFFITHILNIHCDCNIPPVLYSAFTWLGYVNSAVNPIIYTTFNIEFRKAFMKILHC
Description: The results of this testing with compounds representative of the invention whose production is exemplified, infra, are as follows: […]

[3] = tested on: conditioned avoidance responding; assay: Conditioned avoidance, Discrete Trial (lever press); type: in vivo, rat (male CD, Charles River); details: for Conditioned Avoidance, Discrete Trial AB50: p.o.
Description: as §1

[4] = tested on: apomorphine-induced stereotyped behavior and climbing; assay: Antagonism of apomorphine-induced stereotyped behavior and climbing; type: in vivo, mouse (CF-1, Charles River); details: apomorphine 1 mg/kg s.c.; for ED50: Mus musculus, po; for Apomorphine Antagonism, Stereotypy ED50: p.o.
Protocol: Readings are repeated every five minutes during a thirty minute test session. […] The ratio of the ED50 for stereotyped behavior of the ED50 for climbing is calculated.

[5] = read-out: Apomorphine Antagonism, Climbing ED50
[6] = read-out: Apomorphine Antagonism, Stereotypy ED50

| Compound | inhibition at 1 µM [1] | inhibition at 1 µM (D-2 dopamine receptor) | Ki [1] | inhibition in vivo at 40 mg/kg [2] | Conditioned Avoidance, Discrete Trial AB50 [3] | ED50 [4, 5] | Apomorphine Antagonism, Stereotypy ED50 [4] | ED50 ([3]; Rattus norvegicus, po, read-out: Conditioned Avoidance, Discrete Trial AB50) | ED50 [4, 6] |
| --- | --- | --- | --- | --- | --- | --- | --- | --- | --- |
| CC1(C)C2CCC1C(=O)N(CCCCN1CCN(c3cncc(Cl)n3)CC1)C2=O [Example 18, 3-[4-[4-(6-Chloro-2-pyrazinyl)-1-piperazinyl]butyl]-8,8-dimethyl-3-azabicyclo[3.2.1]octane-2,4-dione] | 76% | 21% | – | > 20% | inactive | 43 mg/kg | inactive | – | – |
| CC1(C)C2CCC1C(=O)N(CCCCN1CCN(c3ncccn3)CC1)C2=O [Example 20, 3-[4-[4-(2-Pyrimidinyl)-1-piperazinyl]butyl]-8,8-dimethyl-3-azabicyclo[3.2.1]octane-2,4-dione] | – | 53% | 16 nM | > 20% | inactive | 0.2 mg/kg | inactive | – | – |
| O=C1C2CC=CCC(C2)C(=O)N1CCCCN1CCN(c2ncccn2)CC1 [Example 21, 8-[4-[4-(2-Pyrimidinyl)-1-piperazinyl]butyl]-8-azabicyclo[4.3.1]dec-3-ene-7,9-dione] | – | 63% | 15 nM | > 20% | inactive | 11.1 mg/kg | inactive | – | – |

The remaining molecules from weak to strong by Ki [1], led by results:

| inhibition at 1 µM [1] | inhibition at 1 µM (D-2 dopamine receptor) | Ki [1] | Compound | inhibition in vivo at 40 mg/kg [2] | Conditioned Avoidance, Discrete Trial AB50 [3] | ED50 [4, 5] | Apomorphine Antagonism, Stereotypy ED50 [4] | ED50 ([3]; Rattus norvegicus, po, read-out: Conditioned Avoidance, Discrete Trial AB50) | ED50 [4, 6] |
| --- | --- | --- | --- | --- | --- | --- | --- | --- | --- |
| – | 97% | 15 nM | O=C1C2CCCC(O2)C(=O)N1CCCCN1CCN(c2cccc(C(F)(F)F)c2)CC1 [Example 19, 3-[4-[4-[3-(Trifluoromethyl)phenyl]-1-piperazinyl]butyl]-9-oxa-3-azabicyclo[3.3.1]nonane-2,4-dione] | ~80% | – | 9.06 mg/kg | – | 27 mg/kg | 31 mg/kg |
| – | 38% | 4 nM | O=C1C2CCC(C2)C(=O)N1CCCN1CCN(c2cccc(C(F)(F)F)c2)CC1 [Example 22, 3-[3-[4-[3-(Trifluoromethyl)phenyl]-1-piperazinyl]propyl]-3-azabicyclo[3.2.1]octane-2,4-dione] | ~80% | weak | 29.5 mg/kg | – | – | 43.3 mg/kg |
